# Measured values from patent publication US9212381B2, “Methods and compositions for labeling polypeptides” (President and Fellows of Harvard College, priority 2011, dated 2015).
# Entries after “also recorded” stand apart in the source; their conditions may differ.
# Columns and labels:
# Cells = conditions: Beatty et al. 2002; cited from earlier work
# [1] = system: protein translation in rabbit reticulocyte lysates; assay: in vitro translation of 35S-Met-labeled GFP-SuFu in rabbit reticulocyte lysates, SDS-PAGE and autoradiography; assay type: biochemical; conditions: for inhibition of protein translation in vitro: varying concentrations, 1 hour at 30° C.
# Procedure: (§1) A plasmid carrying a GFP fusion of the mouse Suppressor of Fused (SuFu) gene under the control of an SP6 RNA polymerase promoter was used to generate 35[S]-Met-labeled GFP-SuFu by in vitro translation in rabbit reticulocyte lysates (TNT SP6 Quick coupled transcription/translation kit, Promega), according to the manufacturer's instructions. Translation reactions were performed for 1 hour at 30° C., in the absence or presence of varying concentrations of puro and OP-puro. The reactions were stopped by addition of SDS-PAGE sample buffer with 50 mM DTT and boiling. Equal amounts of lysate were separated by SDS-PAGE and the amount of in vitro translated GFP-SuFu was determined by autoradiography.
# as §1, with “^35S-Met-labeled” for “35[S]-Met-labeled”, “AE-puro (azido-puromycin, FIG. 5A).” for “OP-puro.”
# NIH-3T3 cells = assay: OP-puro labeling of cultured cells, CuAAC with Alexa568-azide, fluorescence microscopy; assay type: cell-based
# Procedure: NIH-3T3 cells were grown on glass coverslips in Dulbecco modified Eagle's medium (DMEM) supplemented with 10% bovine calf serum, penicillin and streptomycin. OP-puro was added to cells in complete culture medium. After incubation for the desired amount of time, the cells were washed with PBS and then fixed with cold methanol for 2 minutes at −20° C. The cells were washed with TBS (10 mM Tris pH 7.5, 150 mM NaCl), permeabilized with TBST (TBS with 0.2% Triton X-100), and then washed with TBS again. CuAAC detection of OP-puro incorporated into nascent protein was performed by reacting the fixed cells for 30 minutes at room temperature with 20 μM Alexa568-azide, as described (Salic et al., Proc. Natl. Acad. Sci. USA 105(7):2415-2420 (2008)). Cu(I) was generated in situ from CuSO4 and ascorbic acid. After staining, the coverslips were washed several times with TBST, counterstained with Hoechst, and mounted in standard mounting media. The stained cells were imaged by DIC and by epi-fluorescence microscopy on a Nikon TE2000U microscope equipped with an OrcaER camera (Hammamatsu), and 20× PlanApo 0.75 NA and 40× PlanApo 0.95 NA air objectives (Nikon). Images were collected using Metamorph image acquisition software (Applied Precision).
# To determine if protein synthesis is required for OP-puro incorporation into nascent polypeptides, cells were incubated with OP-puro, in the presence or absence of 50 micrograms/mL cycloheximide (CHX), added to the cells 15 minutes before OP-puro. This concentration of CHX was determined to completely block protein translation in cells.
# To determine the effect of inhibiting the proteasome on the stability of OP-puro-conjugated polypeptide chains, cells were pulse-labeled with 50 microM OP-puro for 15 minutes and were then incubated in complete media supplemented with 50 micrograms/mL CHX (to block further incorporation of OP-puro into nascent proteins), in the presence or absence of 5 microM of the proteasome inhibitor bortezomib. Cells were fixed at the indicated times and were stained in parallel with Alexa568-azide. Two negative controls were used: 1) untreated cells; and 2) cells pre-incubated with 50 micrograms/mL CHX for 15 minutes, followed by incubation with 50 microM OP-puro and 50 micrograms/mL CHX for another 15 minutes.
# [2] = system: nascent proteins in mouse tissues; assay: imaging of protein synthesis in whole animals with OP-puro, CuAAC with TMR-azide; assay type: in vivo
# Procedure: One hundred microliters of a 20 mM solution of OP-puro in PBS were injected intraperitoneally into a 3-week old mouse, while a mouse injected with 100 microliters of PBS was used as negative control. Various organs were harvested after one hour and were fixed in formalin overnight. Organ fragments were embedded in paraffin, sectioned, and washed with xylene to remove the paraffin. After washing with ethanol and rehydration in TBS, the tissue sections were stained with 20 microM tetramethylrhodamine(TMR)-azide, as described (Salic et al., Proc. Natl. Acad. Sci. USA 105(7):2415-2420 (2008)). The tissue sections were counterstained with Hoechst, mounted in standard mounting media and were then imaged by fluorescence microscopy and DIC.
# Human 293T cells = assay: affinity purification of nascent polypeptide-OP-puro conjugates (CuAAC with biotin azide, beads, autoradiography); assay type: cell-based; conditions: 25 microM OP-puro, 1 hour, FIG. 1E
# Procedure: Human 293T cells were labeled for 1 hour in Met-free DMEM supplemented with 10% dialyzed fetal bovine serum and 35[S]-Met (100 microCi/mL final). The cells were then incubated in the same media, in the presence of 10 microM puro, 25 microM OP-puro or 25 microM OP-puro and 50 micrograms/mL CHX, for an additional 1 hour. The cells were harvested, washed with ice cold PBS and then lyzed on ice in 100 mM Tris pH 8.5 with 1% Triton-X10 and protease inhibitors. The lysates were clarified by centrifugation for 15 minutes at 20,000 g and 4° C., and were then subjected to CuAAC with biotin azide for 30 minutes at room temperature. The final concentrations in the CuAAC reaction were: 100 microM biotin azide, 1 mM CuSO4 and 50 mM ascorbic acid (added last to the lysates). Biotinylated proteins were diluted in binding buffer (20 mM Tris pH 8, 500 mM NaCl, 1% Triton-X100) and were bound to Neutravidin beads (Pierce). After extensive washes with binding buffer, bound proteins were eluted, separated by SDS-PAGE and detected by autoradiography.
# [3] = system: human embryonic kidney 293T cells; assay: translation inhibition in cells: 35S-Met bulk protein translation, SDS-PAGE and autoradiography; assay type: cell-based
# Procedure: To measure translation inhibition in cells, human embryonic kidney 293T cells were pre-incubated for 30 minutes with varying concentrations of puro or OP-puro, in complete media. The cells were then incubated for 3 hours in Met-free media supplemented with 35[S]-Met (from Perkin-Elmer, at 100 microCi/mL final concentration), in the continued presence of varying concentrations of puro or OP-puro. The cells were harvested, lyzed in TBS with 1% Triton X-100 and protease inhibitors (Complete tablets, Roche), and centrifuged for 15 minutes at 20,000 g in a refrigerated centrifuge. The clarified cells lysates were analyzed by SDS-PAGE, followed by autoradiography, to measure bulk protein translation.
compound,measurement,setting,value
"[N-]=[N+]=NCC[C@H](N)C(=O)O [Aha, azidohomoalanine]",factor by which cells prefer Met over the analog,Cells,about 500
"CN(C)c1ncnc2c1ncn2[C@@H]1O[C@H](CO)[C@@H](NC(=O)[C@@H](N)Cc2ccc(OCCN=[N+]=[N-])cc2)[C@H]1O [AE-puro, (S)-2-Amino-3-(4-(2-azidoethoxy)phenyl)-N-((2S,3S,4R,5R)-5-(6-(dimethylamino)-9H-purin-9-yl)-4-hydroxy-2(hydroxymethyl)tetrahydrofuran-3-yl)propanamide]",potency of protein synthesis inhibition compared with unmodified puromycin,"[1]; reticulocyte lysates, FIG. 5B",equal to that of unmodified puromycin
same,inhibition of protein translation in vitro,[1],inhibits protein synthesis in a dose-dependent manner
"C#CCCC(N)C(=O)O (stereo not drawn) [Hpg, homopropargylglycine]",factor by which cells prefer Met over the analog,Cells,about 500
"C[C@@H]1C[C@@H]([C@H](O)CC2CC(=O)NC(=O)C2)C(=O)[C@@H](C)C1 [CHX, cycloheximide, reference compound]",effect on OP-puro incorporation / conjugate formation,NIH-3T3 cells; CHX 50 micrograms/mL,abolished; also recorded: do not form
same,concentration determined to completely block protein translation in cells,NIH-3T3 cells; added 15 minutes before OP-puro,50 micrograms/mL
"C#CCOc1ccc(C[C@H](N)C(=O)N[C@H]2[C@@H](O)[C@H](n3cnc4c(N(C)C)ncnc43)O[C@@H]2CO)cc1 [OP-puro, (S)-2-Amino-N-((2S,3S,4R,5R)-5-(6-(dimethylamino)-9H-purin-9-yl)-4-hydroxy-2-(hydroxymethyl)tetrahydrofuran-3-yl)-3-(4-(prop-2-yn-1-yloxy)phenyl)propanamide]",OP-puro incorporation into nascent proteins in tissues,"[2]; 100 microliters 20 mM intraperitoneally, organs harvested after 1 hour",specific patterns of OP-puro incorporation into nascent proteins
same,"OP-puro staining pattern, small intestine","[2]; intraperitoneal, 1 hour, FIG. 3A/3B",strongest in cells in the crypts and at the base of intestinal villi; also recorded: stains strongly the cells in the crypts (particularly Paneth cells) and the cells at the base of the villi
same,"OP-puro staining, muscle","[2]; intraperitoneal, 1 hour, FIG. 3C",striking striated pattern; also recorded: Sarcomeres are strongly stained
same,"OP-puro staining, liver","[2]; intraperitoneal, 1 hour, FIG. 4A",strongest in hepatocytes; also recorded: stains strongly all hepatocytes
same,"OP-puro staining, spleen","[2]; intraperitoneal, 1 hour, FIG. 4C","strongest OP-puro signal is found at the organ's periphery, under the capsule"
same,fluorescent signal versus OP-puro concentration,"NIH-3T3 cells; 1 hour incubation, Alexa568-azide, FIG. 2A",specific fluorescent signal proportional to the concentration of OP-puro; also recorded: proportional to the concentration of added OP-puro
same,cytoplasmic OP-puro signal at later time points,NIH-3T3 cells; 3 hour image of FIG. 2B,significantly decreased
same,incubation time after which a strong signal was seen,NIH-3T3 cells; FIG. 2B,15 min
same,concentration sufficient to completely block protein synthesis,NIH-3T3 cells; stated in legend of FIG. 2B,50 µM
same,formation of conjugates with nascent polypeptide chains,Human 293T cells,formed conjugates with 35[S]-Met-labeled nascent polypeptide chains
same,concentration that blocked protein synthesis almost completely,[3]; cell type not stated at the place,25 µM
same,"potency of protein synthesis inhibition, fold lower than that of unmodified puro","[3]; cultured cells, FIG. 1D",2-3 fold
same,"potency of protein synthesis inhibition, fold lower than that of unmodified puro","[1]; reticulocyte lysates, FIG. 1C",2-3 fold
same,inhibition of protein translation in vitro,[1],inhibits protein synthesis in a dose-dependent manner
"CC(C)C[C@H](NC(=O)[C@H](Cc1ccccc1)NC(=O)c1cnccn1)B(O)O [bortezomib, reference compound]",effect on stability of OP-puro conjugates,"NIH-3T3 cells; 5 microM bortezomib in chase, FIG. 2C",become stable; also recorded: completely stabilized
